The test system of data set [1] is Streptococcus pyogenes. Nature of the data set: Inhibition of Streptococcus pyogenes SrtA deltaN81 mutant expressed in Escherichia coli BL21(DE3) at 100 uM using Abz-LPETA-Dap(Dnp) as substrate preincubated for 10 mins followed by substrate addition measured every min for 2.5 hrs by fluorimetric assay relative to control.
The test system of data set [2] is Streptococcus pyogenes. As to the kind of experiment: Inhibition of Streptococcus pyogenes SrtA deltaN81 mutant expressed in Escherichia coli BL21(DE3) at 10 uM using Abz-LPETA-Dap(Dnp) as substrate preincubated for 10 mins followed by substrate addition measured every min for 2.5 hrs by fluorimetric assay relative to control.
Data set [3] concerns Streptococcus pyogenes. As to the kind of experiment: (§1) Inhibition of Streptococcus pyogenes SrtA deltaN81 mutant expressed in Escherichia coli BL21(DE3) using Abz-LPETA-Dap(Dnp) as substrate preincubated for 10 mins followed by substrate addition measured every min for 2.5 hrs by fluorimetric assay.
A short description of data set [4]: Solubility of the compound. In kind it is physicochemical.
A short description of data set [5]: as §1.
The test system of the next data set is Staphylococcus aureus. Nature of the data set: Inhibition of […] SrtA deltaN59 mutant expressed in Escherichia coli BL21(DE3) at 100 uM using Abz-LPETG-Dap(Dnp) as substrate preincubated for 10 mins followed by substrate addition measured every min for 2.5 hrs by fluorimetric assay.
The test system of data set [6] is Streptococcus pyogenes. Nature of the data set: Mixed-type inhibition of Streptococcus pyogenes SrtA deltaN81 mutant expressed in Escherichia coli BL21(DE3) at 5 to 10 uM using Abz-LPETA-Dap(Dnp) as substrate preincubated for 10 mins followed by substrate addition measured every min for 2 hrs by fluorimetric assay relative to control.
The nature of data set [7]: Binding affinity to NT-647 labeled Streptococcus pyogenes His-tagged SrtA deltaN81 mutant expressed in Escherichia coli BL21(DE3) by microscale thermophoresis method.
Data set [8] concerns Streptococcus pyogenes. Nature of the data set: Induction of aggregation of NT-647 labeled Streptococcus pyogenes His-tagged SrtA deltaN81 mutant expressed in Escherichia coli BL21(DE3) by microscale thermophoresis method.

Calls of active or inactive are those of the source. No cut-off for these calls is given here.

The inhibition is the relative decrease from the control value, in per cent. What is called IC50 is the concentration that gives 50% inhibition. A word on the Kd: it is the constant that tells how readily two partners part at equilibrium.

`COC(=O)c1cc2ccc(Cl)cc2[nH]1`: the inhibition in the data set with Streptococcus pyogenes [1] came out at 28.2%.
Take `NNC(=O)c1ccnc(C(=O)NN)c1`: the inhibition with Streptococcus pyogenes [1] was determined as 3%.
In the case of `Nc1[nH]c2ccccc2c1C(=O)NC1CC1`, the inhibition in the data set on Streptococcus pyogenes [1] stood at 29.2%.
`O=Cc1nc2ccc(Cl)cc2[nH]1`: in the data set with Streptococcus pyogenes [1], the inhibition was 19.9%.
The same measure, in the same setting: then `Nc1c(C(=O)NCC(O)c2ccccc2)cnn1-c1ccccc1` (stereo not drawn), with 35.4%; and `O=Cc1ccc[nH]1`, with 3.2%.
On the same count and under the same terms, with `O=C(c1cccs1)N1CCN(c2ncccn2)CC1` the figure was 10.2%; with `CCCN1CCOC2c3c(ccc4[nH]ccc34)OCC21` (stereo not drawn), 13.4%.
On to `Nc1[nH]c2cc(Cl)ccc2c1C(=O)NCCc1ccc(Cl)cc1`, for which the inhibition is 91.9% in the data set with Streptococcus pyogenes [1] and > 50% in the data set on Streptococcus pyogenes [2].
As to `CC(C(=O)O)c1ccc2cc(OS(C)(=O)=O)ccc2c1` (stereo not drawn), the inhibition with Streptococcus pyogenes [1] was 17%.
Consider `CCOC(=O)c1cc(-c2ccccc2)c2cccc(O)c2c1`, for which the results for the inhibition in the data set on Streptococcus pyogenes [1] and with Streptococcus pyogenes [2] were 60.2% and > 50%, respectively.
Turning to `CCOC(=O)NCCc1c[nH]c2ccc(OC)cc12`, the inhibition in the data set on Streptococcus pyogenes [1] was 11.7%.
Consider `COC(=O)c1ccnc(C(=O)OC)c1`, for which the inhibition with Streptococcus pyogenes [1] is 5.5%.
Turning to `Nc1[nH]c2ccccc2c1C(=O)NCCc1ccc(Cl)cc1Cl`, the values for the inhibition in the data set with Streptococcus pyogenes [1] and in the data set on Streptococcus pyogenes [2] were 54.8% and > 50%, respectively.
For `Nc1ncccc1CO`, the inhibition with Streptococcus pyogenes [1] is -0.5%.
Same read-out and setting: with `CCOC(=O)c1[nH]c2cc(Cl)ccc2c1C=O` the figure was 25.7%.
`CCOC(=O)c1cc2ccc(Cl)cc2[nH]1`: the inhibition in the data set with Streptococcus pyogenes [1] worked out at 15%.
Same read-out and setting: then `COc1ccc2[nH]cc(CCNC(C)=O)c2c1`, with 16%.
With `Nc1[nH]c2ccccc2c1C(=O)N1CCCCC1`, the inhibition entry in the data set on Streptococcus pyogenes [3] was “inactive”.
As for `Cn1c2c(c3ccccc31)C(=O)NCC2`, in the data set with Streptococcus pyogenes [1], the inhibition was 20.5%.
Same read-out and setting: then `O=C(O)c1cc2cc(Cl)ccc2[nH]1`, with 9.1%; and `Cn1c(=O)c2[nH]cnc2n(C)c1=O`, with 2.3%; and `O=C(O)c1cc2ccccc2[nH]1`, with 4.5%.
Still for that read-out and setting: then `O=c1cc[nH]c(=O)[nH]1`, with 2.7%.
On to `COc1ccc(C(O)c2[nH]c3ccccc3c2CCN)cc1` (stereo not drawn), for which the values for the inhibition in the data set on Streptococcus pyogenes [1] and in the data set on Streptococcus pyogenes [2] were 60.8% and > 50%, respectively.
In the case of `Cn1c(C(=O)O)cc2ccccc21`, the inhibition with Streptococcus pyogenes [1] came to 8.2%.
As to `O=C(O)c1[nH]c2cc(Cl)ccc2c1C(=O)Cc1ccc(Cl)cc1`, the inhibition in the data set with Streptococcus pyogenes [1] worked out at 28.3%.
The same measure, in the same setting: then `CCC(=O)c1cccs1`, with 0.1%.
Take `CC(=O)NCCc1c[nH]cn1`: the inhibition with Streptococcus pyogenes [1] worked out at 3.8%.
Same read-out and setting: then `Nc1ncccn1`, with 7.5%.
The same measure, in the same setting: with `O=C(O)c1ccc2ccccc2n1` the figure was 23.1%; with `COc1ccc(CCNC(=O)c2cnn(-c3ccccc3)c2N)cc1OC`, 4.6%.
Regarding `O=C(O)CCC(=O)c1c(C(=O)O)[nH]c2cc(Cl)ccc12`, in the data set with Streptococcus pyogenes [1], the inhibition came out at 15.1%.
Turning to `COc1cc(NS(=O)(=O)c2ccc(N)cc2)ncn1`, in the data set on Streptococcus pyogenes [1], the inhibition is 12%.
For the compound `Nc1[nH]c2cc(Cl)ccc2c1C(=O)N1CCOCC1`, the inhibition was 91.6% in the data set with Streptococcus pyogenes [1] and > 50% in the data set with Streptococcus pyogenes [2]. The solubility entry in [4] is listed as “Soluble”. Also, in [5], the IC50 worked out at 10 µM. Also, the inhibition entry in the data set with Staphylococcus aureus was “inactive”. Further, the inhibition entry in the data set on Streptococcus pyogenes [6] is “Active”. Moreover, the Kd in data set [7] was found to be 60 µM. In addition, the result in the data set on Streptococcus pyogenes [8] was inactive.
Regarding `NC(Cc1c[nH]c2ccccc12)C(=O)O` (stereo not drawn), the inhibition with Streptococcus pyogenes [1] was found to be 5.5%.
The same measure, in the same setting: then `CCC(=O)N1CCN(c2ncccn2)CC1`, with 11.6%; and `COc1ccc2[nH]cc(CCN)c2c1`, with -1.9%; and `N#CCC(=O)c1c[nH]c2cc(F)ccc12`, with 10.7%.
The same measure, in the same setting: with `Nc1[nH]c2cc(C(F)(F)F)ccc2c1C(=O)NC1CCCCC1` the figure was -6.3%; with `O=Cc1c[nH]c2ccc(Cl)cc12`, 12.3%; with `O=Cc1ccc2[nH]ccc2c1`, 11.3%.
`O=C(O)CCC(=O)c1cccs1`: the inhibition in the data set with Streptococcus pyogenes [1] was determined as 9.8%.
Same read-out and setting: with `Nc1c(C(=O)N2CCOCC2)cnn1Cc1ccccc1` the figure was 1%.
With `Cc1ccc(S(=O)(=O)/N=C/c2cc3ccc(Cl)cc3[nH]2)cc1`, the inhibition with Streptococcus pyogenes [1] is 8.8%.
Same read-out and setting: with `CC(=O)NCCc1c[nH]c2ccc(O)cc12` the figure was 10.8%.
On the same count and under the same terms, then `NCCc1c[nH]c2ccccc12`, with -5.3%.
For the compound `Nc1ccc(S(=O)(=O)Nc2ccccn2)cc1`, the inhibition in the data set with Streptococcus pyogenes [1] was found to be 3.8%.
`CCOC(=O)c1[nH]c2cc(Cl)ccc2c1C#Cc1ccccc1`: the inhibition with Streptococcus pyogenes [1] is 118%; with Streptococcus pyogenes [2] it was > 50%.
For `O=C1CCN2c3ccccc3Sc3ccc(Cl)c1c32`, the inhibition in the data set on Streptococcus pyogenes [1] was 11.1%.
On to `Nc1[nH]c2ccccc2c1C(=O)N1CCOCC1`, for which the inhibition entry with Streptococcus pyogenes [3] is “inactive”.
Turning to `O=Cc1c[nH]c2ccccc12`, the inhibition with Streptococcus pyogenes [1] amounted to 1.5%.
On the same count and under the same terms, with `O=c1c2cc3cc(Cl)ccc3nc2ncn1N1CCCCC1` the figure was 42.2%; with `Nc1ncncc1C=O`, 20.7%; with `Nc1nccc(O)n1`, 14.5%.
Still for that read-out and setting: with `O=Cc1c[nH]c2cc(Cl)ccc12` the figure was 6.4%.
Still for that read-out and setting: with `O=C(O)c1cc2ccccc2s1` the figure was 4.5%; with `CCOC(=O)c1[nH]c2cc(Cl)ccc2c1C(=O)CCC(=O)OC`, 23.8%.
On to `CC(C)NCC(O)COc1cccc2ccccc12` (stereo not drawn), for which the inhibition in the data set on Streptococcus pyogenes [1] was -4.2%.
Turning to `O=C(O)Cc1c[nH]cn1`, the inhibition in the data set with Streptococcus pyogenes [1] is -7.6%.
Same read-out and setting: with `c1ccc2c3c([nH]c2c1)CNCC3` the figure was 10.1%.
Regarding `COc1cccc2c3c(ccc12)NC(=O)CC3`, the inhibition in the data set with Streptococcus pyogenes [1] is 54.2%; in the data set on Streptococcus pyogenes [2] it was > 50%.
With `O=C(Nc1[nH]c2ccccc2c1C(=O)N1CCOCC1)c1ccccc1`, in the data set with Streptococcus pyogenes [3], the inhibition result was “inactive”.
Consider `O=[N+]([O-])c1cccc2[nH]ccc12`, for which, in the data set with Streptococcus pyogenes [1], the inhibition turned out to be 21.2%.
Still for that read-out and setting: with `CCOC(=O)c1[nH]c2cc(Cl)ccc2c1C(=O)O` the figure was 26.3%.
The same measure, in the same setting: with `Oc1ccc2ncccc2c1` the figure was 115%; with `O=C(O)Cc1c[nH]c2ccccc12`, 8.6%.
Same read-out and setting: with `CCOC(=O)c1[nH]c2cc(Cl)ccc2c1/C=N/c1ccccc1` the figure was 3.7%; with `CCOC(=O)c1cc2ccccc2[nH]1`, 16.4%.
In the case of `COC(=O)c1cc2ccccc2[nH]1`, the inhibition in the data set with Streptococcus pyogenes [1] stood at 5.1%.
Still for that read-out and setting: with `CCOC(=O)c1[nH]c2cc(Cl)ccc2c1N` the figure was 12.8%.
As to `O=C(O)CCC(=O)c1ccc2ccccc2c1`, the inhibition with Streptococcus pyogenes [1] was 86.6%; with Streptococcus pyogenes [2], > 50%.
Regarding `O=C(O)c1cccs1`, the inhibition with Streptococcus pyogenes [1] was found to be 1.4%.
As to `CCOC(=O)c1c(C=O)c(C)n(-c2ccccc2)c1C`, the inhibition in the data set on Streptococcus pyogenes [1] is 2.9%.
